Results on 86 compounds are retold here after a melting point compilation (Tetko et al.; mined from patent text by program, amines drawn as free bases though some values may be those of a salt).

As for `CN(C)N=Cc1cc(-n2c(=O)cc(C(F)(F)F)n(C)c2=O)ccc1Cl`, the melting point fell in the range of 170 to 171 °C.
Then `CC(=O)NC12Oc3cc(C(C)C)ccc3C1(O)C(=O)c1c(N)cccc12` (stereo unspecified), with 278 to 280 °C; and `CCCn1nc2c(N)nc3ncccc3c2c1CC(C)(C)C#N`, with 249 to 252 °C.
The result for `COC1(c2cc(F)cc(Sc3ccc(C(C)=O)cn3)c2)CCOCC1` reads 73 to 74 °C; that for `COc1cc2c(cc1OCCCBr)oc1cc(-c3ccccc3Cl)c3c(c12)C(=O)N(CCCBr)C3=O`, 180 to 182 °C; that for `O=C(NCCN1CCCC1)c1ccc(-c2ccc3nnn(Cc4ccc5ncccc5c4)c3n2)cc1`, 135 to 137 °C.
Then `COc1ccc(C(CN(C)C(=O)/C=C/c2cccnc2)=NO)cc1OC`, with 172 to 173 °C.
For the compound `Cn1c(-c2ccc(-c3ccco3)cc2)cnc1[C@H](Cc1ccccn1)N(C=O)c1cc2cc(Cl)ccc2o1`, the melting point fell in the range of 144 to 146 °C.
The result for `O=C(Nc1nn[nH]n1)c1cnc(N2CCOCC2)nc1OC1CCCCCC1` reads 287 °C.
Then `O=[N+]([O-])c1ccc(CP2(=O)OCCO2)cc1`, with 144 to 145 °C; and `CC(=O)SCCC(=O)N1N=C(c2ccc(C(F)(F)F)cc2)SC1C(=O)OCc1ccccc1` (stereo unspecified), with 120 to 121 °C.
The compound `COP(=O)(OC)C(O)C(CC1CCCCC1)NC(=O)C(CC(C)C)NC(=O)OC(C)(C)C` (stereo unspecified) displayed a melting point of 157 °C.
`O=c1[nH][nH]c(=O)c2c(O)c3ccc(I)cc3nc12` returned a melting point of 243 to 244 °C.
The result for `Cc1oc(Cl)nc1-c1ccc(Cl)cc1Cl` reads 78 °C.
In turn, `CN1C(=O)N(c2ccccc2)C(=O)C1=NC(Cl)C(Cl)(Cl)Cl` (stereo unspecified) returned a melting point of 158 to 160 °C.
The result for `CC(O)c1ccc(-c2ccc(C(=O)OCc3ccccc3)cc2)cc1` (single isomer, unassigned; (+)) reads 104 to 106 °C.
The result for `CCc1nccc(N(C(=O)Cc2ccc(Oc3ccc(C(F)(F)F)cn3)cc2)C(=O)OC)c1Cl` reads 62 to 64 °C; that for `CCOC(=O)C(Cl)=Cc1cc(-n2ncc(C(F)(F)F)cc2=O)c(F)cc1Cl`, 139 to 140 °C.
Then `Oc1ccc2c(c1)COc1c-2cc2ccc(O)cc2c1-c1cccc(F)c1`, with 225 to 227 °C; and `Cc1ccccc1CN(CC(=O)OC(C)(C)C)S(=O)(=O)c1ccc2c(Cl)cnc(Cl)c2c1`, with 96 to 98 °C; and `CCOC(=O)c1cnc2c(NC(=O)c3c(Cl)cccc3Cl)cccc2c1CSc1ncc[nH]1`, with 120 to 123 °C.
Consider `C=CCNC(=O)Oc1cc(-n2c(=O)cc(C(F)(F)F)n(C)c2=O)c(F)cc1Cl`, for which the melting point lay in the range of 98 to 100 °C.
The result for `COC(=O)c1cccc2nc(N3CCOCC3)n(Cc3ccc(-c4ccccc4)c(-c4nnn[nH]4)c3)c12` reads 163 to 167 °C; that for `CN1CCN(CCC#Cc2csc3ncc(C#N)c(Nc4ccc5[nH]ccc5c4)c23)CC1`, 184 to 186 °C.
Then `CCOC(=O)C(=O)CC(=O)c1c(-c2ccccc2)cc2ccccn12`, with 100 to 102 °C; and `Cc1c(C)c2c(c(C)c1OC(=O)CCC(=O)O)CCC(C)(COc1ccc(CC3SC(=O)NC3=O)cc1)O2` (stereo unspecified), with 197 to 202 °C.
As for `Cc1ccsc1-c1nc2cc([N+](=O)[O-])ccc2o1`, the melting point lay in the range of 174 to 176 °C.
The result for `Cc1c(C(=O)Nc2ccc(N3CCC(N4CCOCC4)CC3)c(C#N)c2)cnn1Cc1ccccc1` reads 155 °C.
`CC(=O)OC1CCc2c(C3=C(c4cn(C)c5ccccc45)C(=O)OC3=O)c3ccccc3n2C1` (stereo unspecified) had a melting point of 272 to 275 °C.
Then `Cc1cn(C2CC3OCC3O2)c(=O)[nH]c1=O` (stereo unspecified), with 188 to 190 °C; and `O=C1N=C(c2ccccc2OCC2CC2)N=C2N=CN=C12`, with 259 to 260 °C.
The result for `CCc1nc2cc(Cl)c(Cl)nc2n1-c1ccc(CCNC(=O)NS(=O)(=O)c2ccc(C)cc2)cc1` reads 188 to 189 °C; that for `CCc1cc(C)cc(CC)c1CO`, 71 to 72 °C.
Compound `O=C(Nc1ccc(-n2nc(C(F)(F)F)cc2C(F)(F)F)cc1)c1cc(F)ccc1F` returned a melting point of 168 to 169 °C.
Then `CCCOc1ccc(S(=O)(=O)NC)cc1C1=NC(=O)C2=NC=NC2=N1`, with 245 to 246 °C; and `O=c1scc(-c2ccc(CCO)cc2)s1`, with 92 to 94 °C.
Compound `Nc1ccc2ccc(N3CCCC3)nc2n1` yielded a melting point of 251 °C.
The result for `Oc1cc(C(F)(F)F)nc2cccc(C(F)(F)F)c12` reads 314 to 315 °C; that for `CC(=O)N1CCN(C(=O)Cc2ccc(Cl)c(Cl)c2)C(CN2CCC(O)C2)C1` (stereo unspecified), 133 °C.
The result for `CCOC(=O)C1=Cc2cc(Cl)c(F)cc2OC1C(F)(F)F` (stereo unspecified) reads 97.6 to 98.6 °C; that for `Nc1ccc(/C=C/C(=O)CC(=O)/C=C/c2ccc(O)cc2)cc1`, 212 to 217 °C.
Then `CN1C(=O)C(C(=O)Nc2ccc(F)cc2)Sc2ccccc21` (stereo unspecified), with 158 to 160 °C; and `COc1ccc(CNc2nccc(-c3c[nH]nc3-c3ccc(F)cc3)n2)cc1`, with 183 to 185 °C.
As to `N#Cc1cccc(CCc2nnc(-c3ccc4nccn4c3)o2)c1`, the melting point was in the range of 168 to 169 °C.
Then `CN1C(=O)CC2(c3ccccc3)CCCC3OC32C1=O` (stereo unspecified), with 135 to 140 °C.
The result for `CC1CC(n2c(NC3CC3)nc3cc(Cl)c(Cl)cc32)C(O)C1O` (stereo unspecified) reads 231 to 233 °C; that for `C#Cc1cccc(Nc2ncnc3[nH]cc(-c4cccs4)c23)c1`, 230 to 232 °C.
The result for `CCCCCCCNC(=O)Nc1ccc(-n2ccnc2)cc1C(=O)NCC1CCN(C(c2ccccc2)c2ccccc2)CC1` reads 183 to 185 °C.
In the case of `COc1ccc2nc(Sc3ccc4c(c3)CC[C@H]3N(C)C(=O)CC[C@]43C)sc2c1`, the melting point fell in the range of 102 to 107 °C.
In the case of `O=c1c2c(Cc3ccccc3Cl)n[nH]c2c2cccnc2n1-c1cccc(C(F)(F)F)c1`, the melting point lay in the range of 276 to 278 °C.
Then `Cc1nn(-c2cc(Oc3ccc(OC(C)C(=O)O)cn3)c(Cl)cc2F)c(=O)n1C(F)F` (stereo unspecified), with 49 to 51 °C; and `CCNC(=O)Nc1nc2cc(-c3cccnc3)cc(N3CCC(O)C3)n2n1` (stereo unspecified), with 296 to 298 °C.
Then `COC(=O)c1c(O)c2c([nH]c1=O)CCCCC2`, with over 255 °C.
With `CCCCN(CCCC)C(=O)NCCc1ccc(-c2csc(NC(=O)OC(C)(C)C)n2)cc1`, the melting point is 70 to 75 °C.
The result for `Cc1nc(OCCO)c(C#N)c(N2CCc3ccccc3CC2)n1` reads 86.7 to 92.3 °C; that for `CC(C)(C)OC(=O)N1CC=C(c2c(F)cc(N)cc2F)CC1`, 134 to 135 °C; that for `CC1(C)CN=C2C(=O)c3cc(S(=O)(=O)N4CCCC4)ccc3N2C1`, 200 to 201 °C.
Then `Nc1ccc(OS(=O)(=O)c2ccc(NCCO)cc2)cc1[N+](=O)[O-]`, with 180 °C; and `COc1cc2c(cc1OC(=O)c1ccccc1)C1Cc3c(Cl)cc(OC)c(OC(=O)c4ccccc4)c3CN1CC2` (stereo unspecified), with 152 to 154 °C.
The result for `CCCCCCCCCCc1ccc(CO)cc1` reads 39 to 40 °C; that for `O=C(CCNc1c(C(=O)O)[nH]c2cc(Cl)ccc12)c1ccc(F)c(F)c1`, 260 to 264 °C.
In turn, `COc1ccc(-c2cnc(-c3ccccc3)[nH]c2=O)cc1OC` returned a melting point of 230 °C.
The result for `CC(=O)c1c(C(=O)N(C)C)[nH]c2ccc(Cl)cc12` reads 150 to 155 °C; that for `CCc1cc(Br)cc2[nH]c(=O)oc(=O)c12`, 208 to 210 °C; that for `O=C(O)C(=O)c1ccc(OCCOc2cc3ccccc3c3ccccc23)cc1`, 179 to 180 °C.
The result for `CC(C)(C)c1cc(CN(c2cccnc2)S(=O)(=O)c2cccc(Br)c2)cc(C(C)(C)C)c1O` reads 129 to 131 °C; that for `COc1cc(C(=O)N(C(C)C)C2CCCCC2)ccc1Cn1c(CN(C)C)nc2cccnc21`, 124 to 125 °C.
In the case of `Cc1cc(S(N)(=O)=O)ccc1NC(=O)CCl`, the melting point was 193 to 194 °C.
Then `Cc1ccc(Sc2ccnc(Cl)n2)cc1`, with 80 to 81 °C; and `CCOC(=O)c1cc(OC2CCCCC2=O)[nH]n1` (stereo unspecified), with 122 to 124 °C.
As to `CCCCCCCCCCCCCCCCCCCCCC(=O)OCC1CC1`, the melting point is 44 °C.
As for `OC1(c2ccccc2)CSC2=NCN(Cc3ccccc3)CN21` (stereo unspecified), the melting point was in the range of 97 to 99 °C.
Compound `ClCc1cn2c(n1)CN=C(c1ccccn1)c1cc(Cl)ccc1-2` showed a melting point of 161 °C.
Then `C=C1NC(=O)N(Cc2ccccc2)C1=N`, with 139 to 141 °C.
Then `Cc1c(Br)cc2c(c1C)OC(=O)C2(C)c1ccc(C(C)C)cc1` (stereo unspecified), with 116 to 117 °C; and `CN(C)c1ccc(NC(=O)N(C)c2cccc(-c3ccc(CC(Nc4ccccc4C(=O)c4ccccc4)C(=O)O)cc3)c2)cc1` (stereo unspecified), with 130 °C; and `CCS(=O)(=O)Nc1cccc(COc2cc(F)cc(Nc3ccc(I)cc3F)c2C(N)=O)c1`, with 170 °C.
The result for `COC(=O)[C@H](Cc1ccc(-c2ccccc2)cc1)NC(=O)OC(C)(C)C` reads 83 to 85 °C; that for `CC(=O)NCC1CC1c1c(Br)ccc2nn(C)cc12` (stereo unspecified), 135 to 137 °C.
With `O=C(O)c1ccc(-c2cc(O)c(SCCc3ccccc3)c(=O)o2)cc1`, the melting point stood at 231 °C.
Then `CCOC(=O)CCCCn1c(=O)[nH]c2ccc(F)cc2c1=O`, with 131 to 132 °C; and `CCCCN(CCCC)S(=O)(=O)c1ccc(C(CC2CCCC2)C(=O)Nc2nc3ccc(OC)nc3s2)cc1` (stereo unspecified), with 65 to 67 °C.
Then `CCOCOc1cc(C)ccc1-c1cc(-c2cccc([N+](=O)[O-])c2)c(C#N)c(NC(=O)c2cccs2)n1`, with 121 to 123 °C; and `COc1cc(C(=O)O)ccc1Cc1cn(C)c2ccc(NC(=O)NC3CCCC3)cc12`, with 203 to 206 °C.
`Cc1[nH]c(=S)n(Nc2cccc(Br)c2)c1-c1ccccc1` showed a melting point of 190 °C.
Then `O=C1NCC(Cc2ccc(Br)cc2)O1` (stereo unspecified), with 115 to 117 °C.
